In patent US20220016241A1, “COMPOSITIONS AND METHODS FOR REDUCING ANTIGEN-SPECIFIC IMMUNOGENICITY” (The Research Foundation for The State University of New York, priority 2013, published 2022):

Columns and labels:
[1] = target: T1, FVIII (Homo sapiens, UniProt P00451); assay: Binding of OPLS to FVIII by fluorescence spectroscopy
T1 construct: Full length recombinant human FVIII (Baxter Biosciences, Carlsbad, Calif.) was obtained as a gift; purchased Baxter Biosciences (gift from the Western New York Hemophilia Foundation)
T1 sequence (P00451 20-2351): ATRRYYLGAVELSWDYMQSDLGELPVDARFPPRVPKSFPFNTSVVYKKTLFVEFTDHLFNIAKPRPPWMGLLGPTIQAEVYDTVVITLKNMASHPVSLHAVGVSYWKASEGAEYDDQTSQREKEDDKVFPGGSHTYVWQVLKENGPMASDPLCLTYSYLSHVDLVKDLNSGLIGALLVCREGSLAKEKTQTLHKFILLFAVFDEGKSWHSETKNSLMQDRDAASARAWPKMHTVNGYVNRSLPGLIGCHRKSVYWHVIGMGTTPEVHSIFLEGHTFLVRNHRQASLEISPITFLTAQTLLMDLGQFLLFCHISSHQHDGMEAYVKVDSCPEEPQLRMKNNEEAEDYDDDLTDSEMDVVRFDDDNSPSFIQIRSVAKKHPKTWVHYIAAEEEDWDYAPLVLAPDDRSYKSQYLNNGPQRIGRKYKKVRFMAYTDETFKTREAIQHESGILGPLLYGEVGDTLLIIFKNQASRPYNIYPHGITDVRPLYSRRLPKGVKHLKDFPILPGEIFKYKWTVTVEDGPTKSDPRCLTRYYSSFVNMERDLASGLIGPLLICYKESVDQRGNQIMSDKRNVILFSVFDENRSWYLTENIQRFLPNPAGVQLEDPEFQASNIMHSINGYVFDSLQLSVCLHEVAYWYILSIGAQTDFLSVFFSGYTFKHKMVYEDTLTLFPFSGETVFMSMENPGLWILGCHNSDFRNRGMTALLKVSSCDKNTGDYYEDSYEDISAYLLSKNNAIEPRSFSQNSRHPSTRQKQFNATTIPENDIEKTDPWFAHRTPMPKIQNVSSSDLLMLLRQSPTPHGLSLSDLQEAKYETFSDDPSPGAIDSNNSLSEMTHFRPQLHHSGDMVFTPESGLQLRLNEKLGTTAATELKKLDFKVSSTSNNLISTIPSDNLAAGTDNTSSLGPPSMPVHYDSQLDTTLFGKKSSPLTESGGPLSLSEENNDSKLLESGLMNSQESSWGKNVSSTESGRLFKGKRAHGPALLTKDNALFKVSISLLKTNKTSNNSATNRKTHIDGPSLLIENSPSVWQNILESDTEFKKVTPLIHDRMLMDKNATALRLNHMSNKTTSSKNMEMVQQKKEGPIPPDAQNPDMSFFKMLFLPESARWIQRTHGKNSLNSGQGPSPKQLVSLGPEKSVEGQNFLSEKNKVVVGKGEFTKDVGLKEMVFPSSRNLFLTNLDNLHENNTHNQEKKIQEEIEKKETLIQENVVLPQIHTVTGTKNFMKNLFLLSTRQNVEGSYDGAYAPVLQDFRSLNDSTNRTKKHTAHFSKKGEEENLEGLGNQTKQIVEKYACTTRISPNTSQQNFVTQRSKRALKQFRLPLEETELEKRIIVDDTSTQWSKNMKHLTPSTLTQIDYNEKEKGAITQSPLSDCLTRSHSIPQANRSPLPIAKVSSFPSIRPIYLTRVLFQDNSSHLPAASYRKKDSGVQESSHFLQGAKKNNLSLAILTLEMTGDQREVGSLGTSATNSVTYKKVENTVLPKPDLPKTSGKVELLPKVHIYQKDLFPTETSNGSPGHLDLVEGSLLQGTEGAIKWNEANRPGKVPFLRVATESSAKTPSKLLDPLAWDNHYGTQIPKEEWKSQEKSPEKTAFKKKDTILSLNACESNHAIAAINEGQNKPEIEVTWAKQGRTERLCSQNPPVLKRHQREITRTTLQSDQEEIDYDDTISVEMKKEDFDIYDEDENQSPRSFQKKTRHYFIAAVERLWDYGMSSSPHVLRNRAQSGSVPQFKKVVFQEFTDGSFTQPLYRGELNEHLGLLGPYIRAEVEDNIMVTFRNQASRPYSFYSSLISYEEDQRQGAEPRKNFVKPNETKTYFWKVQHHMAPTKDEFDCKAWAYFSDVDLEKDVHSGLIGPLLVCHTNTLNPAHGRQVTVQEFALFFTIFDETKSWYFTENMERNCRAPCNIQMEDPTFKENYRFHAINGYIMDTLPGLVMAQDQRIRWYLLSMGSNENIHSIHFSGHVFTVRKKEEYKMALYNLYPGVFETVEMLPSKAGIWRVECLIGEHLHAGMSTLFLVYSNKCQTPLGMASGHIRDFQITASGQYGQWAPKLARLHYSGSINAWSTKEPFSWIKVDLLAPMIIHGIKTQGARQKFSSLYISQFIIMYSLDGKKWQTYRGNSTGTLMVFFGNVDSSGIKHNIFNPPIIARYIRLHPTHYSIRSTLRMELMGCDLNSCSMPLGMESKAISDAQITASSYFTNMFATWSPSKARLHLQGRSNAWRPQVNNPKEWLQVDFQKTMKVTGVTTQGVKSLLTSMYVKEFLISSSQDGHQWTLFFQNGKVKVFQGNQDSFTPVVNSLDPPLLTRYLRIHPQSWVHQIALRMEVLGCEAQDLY
T1 sequence (P00451 20-1667 partner limits assumed): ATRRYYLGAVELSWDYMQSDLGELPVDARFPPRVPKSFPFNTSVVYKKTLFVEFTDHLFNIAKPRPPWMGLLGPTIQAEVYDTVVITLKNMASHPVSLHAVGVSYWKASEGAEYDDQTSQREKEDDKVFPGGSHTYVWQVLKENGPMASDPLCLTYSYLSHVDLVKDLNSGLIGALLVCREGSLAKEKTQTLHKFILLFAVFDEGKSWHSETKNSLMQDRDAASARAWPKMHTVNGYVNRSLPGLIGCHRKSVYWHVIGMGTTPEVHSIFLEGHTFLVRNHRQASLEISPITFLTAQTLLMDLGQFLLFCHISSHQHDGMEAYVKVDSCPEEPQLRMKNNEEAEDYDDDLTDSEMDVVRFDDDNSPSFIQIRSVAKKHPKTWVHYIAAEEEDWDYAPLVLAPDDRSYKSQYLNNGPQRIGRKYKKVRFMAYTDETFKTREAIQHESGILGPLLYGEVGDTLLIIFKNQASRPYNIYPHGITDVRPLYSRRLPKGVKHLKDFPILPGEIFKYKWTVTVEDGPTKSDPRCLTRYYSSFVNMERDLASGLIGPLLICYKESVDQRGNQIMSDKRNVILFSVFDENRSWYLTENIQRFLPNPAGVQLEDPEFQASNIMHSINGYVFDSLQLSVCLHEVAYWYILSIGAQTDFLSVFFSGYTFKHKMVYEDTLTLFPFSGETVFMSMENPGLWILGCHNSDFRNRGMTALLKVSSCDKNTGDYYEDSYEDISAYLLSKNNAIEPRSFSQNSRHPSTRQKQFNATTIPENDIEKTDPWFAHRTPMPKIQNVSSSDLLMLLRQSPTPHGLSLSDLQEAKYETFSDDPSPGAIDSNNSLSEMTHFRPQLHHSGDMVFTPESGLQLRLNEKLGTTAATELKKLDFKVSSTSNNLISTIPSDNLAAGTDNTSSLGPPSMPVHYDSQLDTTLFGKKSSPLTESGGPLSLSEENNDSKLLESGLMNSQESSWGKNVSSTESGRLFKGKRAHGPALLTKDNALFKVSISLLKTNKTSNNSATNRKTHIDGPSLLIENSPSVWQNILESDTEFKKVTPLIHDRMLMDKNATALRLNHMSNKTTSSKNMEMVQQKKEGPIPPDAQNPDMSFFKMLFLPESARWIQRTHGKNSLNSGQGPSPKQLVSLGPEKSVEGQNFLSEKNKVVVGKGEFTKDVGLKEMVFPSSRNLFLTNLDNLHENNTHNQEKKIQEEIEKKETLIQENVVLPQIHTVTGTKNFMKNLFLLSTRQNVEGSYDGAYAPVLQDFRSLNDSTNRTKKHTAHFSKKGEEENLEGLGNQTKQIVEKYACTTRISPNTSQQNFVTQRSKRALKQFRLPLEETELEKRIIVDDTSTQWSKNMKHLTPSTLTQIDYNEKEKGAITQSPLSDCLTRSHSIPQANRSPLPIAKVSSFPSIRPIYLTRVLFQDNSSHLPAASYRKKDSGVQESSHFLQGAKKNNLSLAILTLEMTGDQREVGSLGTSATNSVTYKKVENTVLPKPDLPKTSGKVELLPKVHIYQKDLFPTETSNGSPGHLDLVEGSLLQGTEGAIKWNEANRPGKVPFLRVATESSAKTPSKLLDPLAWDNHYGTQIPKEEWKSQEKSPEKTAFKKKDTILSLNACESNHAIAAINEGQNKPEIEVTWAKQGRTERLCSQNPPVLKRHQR
Experimental: (§1) The binding of OPLS to several therapeutic proteins was evaluated using fluorescence spectroscopy (FIG. 2).

[2] = target: T2, GAA (Homo sapiens, UniProt P10253); assay: Binding of OPLS to GAA by fluorescence spectroscopy; details: spectroscopic titration
T2 construct: Full length recombinant rhGAA was produced in Human Kidney Embryo Cells for our use by Creative Biomart; purchased Creative Biomart (Shirley, N.Y.); host or cells: Human Kidney Embryo Cells
Experimental: as §1

[3] = target: T3, GAA peptide (Homo sapiens, UniProt P10253); assay: Binding of OPLS to GAA peptide by ultraviolet/visible spectroscopy
T3 construct: purchased American Peptide Company (Sunnyvale, Calif.); host or cells: chemical synthesis
From the text: Instead of using fluorescence to detect binding, ultraviolet/visible spectroscopy was used.

[4] = tested on: TNF-α; assay: Cytokine profile of BMDCs in vitro, TNF-α ELISA; format: cell-based, HA mice; details: 1 μg/ml FVIII with 50 mM OPLS, 48 hours, n=4
Experimental: Generation of bone marrow derived dendritic cells (BMDC): Bone marrow was isolated from 6 to 8 week old naïve HA. Briefly, bone marrow was cultured in RPMI media supplemented with […] (low endotoxin), 2-mercaptoethanol, Pen/Strep and […] GMCSF. Media was changed on days 3, 6 and 8 of culture and DCs were used on day 9. BMDC are then harvested and used as needed. To verify the differentiation of bone marrow cells into DCs, CD11c surface expression was confirmed by flow cytometry using anti-CD11c-FITC antibody with appropriate isotope controls.
Effects of OPLS on cytokine profile of BMDCs in vitro: The effects of OPLS on cytokine secretion by dendritic cells were investigated. On day 9 BMDCs, generated as above, were treated with FVIII as an antigen in the presence of increasing dose of OPLS. Changes in production of pro-inflammatory cytokines TNF-α and IL12p70 as well as the regulatory cytokine TGF-β were monitored as a function of dose. BMDCs were exposed to 1 μg/ml FVIII with increasing dose of OPLS (0, 0.5, 1, 10, 25, 50 mM). 1 M stock of OPLS was prepared by adding the appropriate amount of OPLS directly to RPMI media, and pH was adjusted using sterile 3N and 1N NaOH. […] TGF-β, TNF-α and IL-12p70 concentrations were determined using standard ELISA (R&D System Inc. Minneapolis, Minn., USA or Invitrogen […], Calif.).

[5] = tested on: anti-GAA antibody titers; assay: Effect of OPLS on immunogenicity of GAA protein; format: in vivo, mice; details: 5 mg dose with 1 μg GAA, 4 weekly s.c., 2 week rest
Experimental: Materials and Methods: GAA Source: Full length recombinant rhGAA was produced in Human Kidney Embryo Cells for our use by Creative Biomart (Shirley, N.Y.); OPLS Source: Sigma-Aldrich (St. Louis, Mo.). n=8 animals/group were immunized with 4 weekly s.c. injections of 1 μg of GAA in 100 μl of either sterile TRIS for the free group or in 5 mg OPLS in sterile TRIS for the OPLS-GAA group. A group of 8 mice will receive the same dose of CBrhGAA in 5 mg O-phospho-D-serine (OPDS) solution as a negative control. After a 2 week rest period, a blood sample from the saphenous vein will be collected. Samples were stored at −80° C. until analysis. These samples were then analyzed for anti-GAA Ab titers. Anti-GAA antibody titers were measured as follows: ELISA plate (maxisorp, NUNC) was coated with 50 μl of 5 μg/ml of sterile rhGAA in sodium carbonate-bicarbonate buffer pH =9.6. The plate was incubated overnight at 4° C. The plate was washed six times with PBS containing 0.05% Tween 20 (PBS-T, 250 μl/well) using an automated plate washer. The plate was blocked with PBS containing 1% BSA (300 μl/well) as the block buffer for 2 hr at 37° C. […] The reaction was stopped with 2 N sulfuric acid and read immediately at 450 nm using a micro-plate reader. The titer values are quantitated using a statistical endpoint method as described by Frey et al. Control plasma samples were run on each plate. […]

[6] = tested on: anti-RXT antibody titers; assay: Effect of OPLS on rituximab immunogenicity; format: in vivo, SW mice; details: OPLS 5 mg vs 0.4 mg with 1 μg RXT s.c., dose dependent
Experimental: Materials and Methods: 30 SW mice between 6 and 8 weeks of age were divided into 3 groups: group one received 1 ug RXT SC in the abdominal region. Group two received 1 ug RXT/0.4 mg OPLS SC in the abdominal region and group 3 received 1 μg RXT/5 mg OPLS sc in the abdominal region. This treatment was given one day 1, 8, 10 and 12. Three days after the last injection the animals were sacrificed. Blood was centrifuged at 7500 rpm for 5 min at 4 degrees Celsius. Plasma was then removed and stored at −80 degrees Celsius until analysis Total titers were determined by classical standard ELISA. Briefly, Nunc-Maxisorb 96-well plates were coated overnight at 4° C. with 50 μl/well of 2.5 μg/ml RXT. Plates were then washed and blocked with 1% bovine serum albumin (blocking buffer). 50 μl/well of various dilutions of the sample were added to the plate and incubated at room temperature for 2 h. Plasma samples from animals exposes to a sham treatment (buffer only) served as controls. The plates were then washed and incubated with 50 μl of goat anti-mouse FC-specific anti-body-HRP conjugate at a 1:50000 dilution in blocking buffer at room temperature for 1 h. Color was developed for 20 min with 100 μl of TMB solution. 100 μl of 2 N H2SO4 was used to stop the reaction. Optical density at […] was measured using a plate reader. Non-responders were given the value of the plate specific factor for uniformity. […]

SMILES: N[C@@H](COP(=O)(O)O)C(=O)O [OPLS, O-Phospho-L-Serine]
- Kd ([1]; fluorescence titration, FIG. 2, read-out: Dissociation constant (Kd) of OPLS binding to FVIII): 8.4 µM
- Binding affinity of FVIII for OPLS ([1]; spectroscopic titration): highest affinity
- Binding affinity of GAA for OPLS [2]: lowest affinity
- Binding of GAA peptide to OPLS [3]: did not bind
- TNF-α production by BMDC [4]: substantial reduction
- Anti-GAA antibody titers vs GAA alone [5]: lower
- Anti-RXT antibody titers vs RXT alone [6]: lower
